In publication PMC4405350, “From Broad-Spectrum Biocides to Quorum Sensing Disruptors and Mussel Repellents: Antifouling Profile of Alkyl Triphenylphosphonium Salts” (PLoS ONE, 2015):

Assays:
[1] = test system: Gayralia oxysperma spores; assay: Macroalgal spore germination inhibition; type: cell-based; conditions: 6 days, 19±1 °C
Method: (§1) All the biological assays were run by triplicate. […] For the active products, serial dilutions were performed to calculate the half-maximal inhibitory concentrations (IC50) or the minimal inhibitory concentrations (MIC). Unless otherwise stated, the test concentrations were 100, 50, 25, 10, 5, 2.5, 1, 0.5 and 0.1 μM. Dose-response curves were adjusted with GraphPad Prism 5 software using a four-parameter non-linear regression model.
To evaluate the effect of the phosphonium salts on the germination of macroalgal spores, Gayralia oxysperma (Kützing) K.L.Vinogradova was selected as model organism. G. oxysperma (Ulotrichales, Chlorophyta) is a cosmopolitan member of the Ulvophyceae. Unlike Ulva species, which produce biflagellate male and female gametes, as well as quadriflagellate spores, G. oxysperma only produces biflagellate spores. This is an advantage as bioassays can be conducted straightforwardly without the need to distinguish between gamete-producing and zoospore-producing plants. […] Fresh fertile fragments were selected and placed in Petri dishes. Spores were then released in Von Stosch Solution (VSS) by the osmotic method. Bioassays were conducted in flat-bottom 96-well plates as described by Chambers and co-workers, with slight modifications. Each well was filled with 50 μl of the appropriate dilution of the products in VSS to which 50 μl of spore inoculum (ca. 2 x 10^5 spores ml^-1) were added. Plates were incubated at 19±1 °C for 6 days. After the incubation time, the bottom of each well was examined for the presence of germinated spores with an inverted microscope. A spore was considered as germinated when the germ tube was visible. The MIC was recorded as the lowest concentration inhibiting spore germination.

[2] = test system: violacein production of C. violaceum CVO26; assay: Quorum sensing bioassay: violacein production; type: cell-based, Chromobacterium violaceum; conditions: Chromobacterium violaceum, 18 h, read-out: IC50 (Violacein inhibition)
Method: (§2) The reporter strain C. violaceum CVO26 (CECT 5999) was used to screen the ability of the products to interfere with violacein production, a QS-regulated phenotype. C. violaceum CVO26 is a mini-Tn5 mutant that depends on an exogenous source of autoinducer (AI) (N-hexanoyl homoserine lactone, HHL) for violacein production. C. violaceum CVO26 was cultured in LB broth (Sigma-Aldrich) supplemented with 25 μg ml^-1 kanamycin. Inocula were prepared by dilution (1:100) of an overnight culture of the reporter strain [49]. One hundred microliters of inoculum with HHL (Sigma-Aldrich, 6 μM) or without the AI were added to 96-well plates containing 100 μl of the appropriate dilutions of the test products in LB. Thus, two sets of plates were prepared. One set of plates (without HHL) was used to evaluate the effect of the products on bacterial growth, whereas the other set of plates (with HHL) was used to evaluate their effect on violacein production. Both sets of plates were incubated at 30 °C with agitation (150 rpm) for 18 h.
(§3) Growth inhibition was quantified in the first batch of plates by re-suspending bacterial pellets and measuring the OD625. From the second batch of plates violacein was extracted and quantified. Briefly, the plates were dried overnight (60 °C) and violacein was re-solubilized by the addition of 200 μl of DMSO. The plates were shaken for 3 h and then the OD590 was determined.
To evaluate the effect of the alkyl triphenylphosphonium salts on QS-regulated phenotypes, an initial screening at the cut-off concentration of 100 μM was conducted with C. violaceum CVO26. The QS model of C. violaceum is relatively simple and consists of an acyl-homoserine lactone synthase (CviI) that produces the AI molecule N-hexanoyl homoserine lactone (HHL, strain ATCC 31532), or N-3-hydroxydecanoyl homoserine lactone (strain ATCC 12472) which is recognized by the cytoplasmic receptor CviR (Fig 4). The reporter strain CVO26 is a CviI::mini-Tn5 mutant of strain ATCC 31532 and thus recognizes HHL. CviR is a DNA-binding transcription factor that activates the expression of the genes encoding the production of violacein, the characteristic purple alkaloid that gives name to the species.
(§4) Indeed, the inhibitions observed in violacein production for long alkyl chains (10–18, 20) were clearly correlated to the biocidal effect exerted by these compounds, with ‘therapeutic ratios’ (IC50 for growth inhibition/IC50 for violacein inhibition) around 1, in general (Table 2). Note that, as the length of the hydrocarbon chain becomes shorter, this ratio increased (8–9). […] To evaluate these compounds in further detail, […] stock solutions were prepared […] to avoid the use of high concentrations of DMSO in the bioassays. […] Serial two-fold dilutions (500–3.9 μM) were assayed. Consequently, the highest amount of DMSO used in the assay was 0.25% (v/v). […] Growth inhibitory effects are only observed at 500 μM, particularly for compound 7 (Fig 6D).

C. violaceum CVO26 = C. violaceum CVO26 growth inhibition (OD625); type: cell-based; conditions: Chromobacterium violaceum, CVO26, 18 h, read-out: IC50 (Growth inhibition)
Method: as §2, §3, §4

Artemia salina nauplii = assay: in vivo; conditions: instar I nauplii, 24 h, 28 °C
Method: as §1
Artemia salina cysts (INVE Aquaculture, Ghent, Belgium) were hatched in brackish water (30 ‰ salinity) at 28 °C with aeration and under constant light. Newly hatched instar I nauplii were harvested for bioassays. Tests were conducted in 96-well plates (15±5 nauplii per well, test volume = 200 μl). The number of dead and alive individuals was recorded after 24 h of incubation at 28 °C and 24-hour photoperiod.

Fusarium sp. = assay: Marine-derived fungi growth inhibition (OD405); type: cell-based; conditions: Fusarium, 120 h, 5 days, 26 °C
Method: All the biological assays were run by triplicate.
(§5) Three strains of marine-derived fungi were kindly provided by Dr. Á. Trigos (University of Veracruz, Mexico). The strains were isolated from reef organisms collected from the Veracruz Reef System and identified as Aspergillus sp., Fusarium sp. and Alternaria sp..
(§6) Fungal strains were cultured in Potato-Dextrose Agar (PDA) supplemented with filtered seawater (FSW) (50% v/v) at 26 °C for 5 days prior to experiments. […] Briefly, fungal inocula were prepared by addition of 5 ml of sterile saline solution to the cultures. Gently swabbing released conidia. […] The plates were incubated for 5 days at 26 °C. The calculation of the half-maximal inhibitory concentrations (IC50) was performed using OD405 as endpoint.

Aspergillus sp. = assay: Marine-derived fungi growth inhibition (OD405); type: cell-based; conditions: Aspergillus, 120 h; growth inhibition, 5 days, 26 °C; read-out: IC50 Aspergillus sp.
Method: as §1, §5, §6

Alternaria sp. = assay: Marine-derived fungi growth inhibition (OD405); type: cell-based; conditions: Alternaria, 120 h; growth inhibition, 5 days, 26 °C; read-out: IC50 Alternaria sp.
Method: as §1, §5, §6

Row | Compound | MIC G. oxysperma (lowest concentration inhibiting spore germination) [1] | IC50 [2] | IC50 (C. violaceum CVO26) | IC50 A. salina (LC50) (Artemia salina nauplii) | IC50 (Fusarium sp.) | IC50 (Aspergillus sp.) | IC50 (Alternaria sp.)
1 | CCCCCCCCCCCCCCCCCCC[P+](c1ccccc1)(c1ccccc1)c1ccccc1 [Compound 18] | >100 µM | 35.2 µM | 40.1 µM | <0.5 µM | 7.3 µM | 19.6 µM | 5.3 µM
2 | c1ccc([P+](CCCCCCCCCCCC[P+](c2ccccc2)(c2ccccc2)c2ccccc2)(c2ccccc2)c2ccccc2)cc1 [Compound 20] | 5 µM | 16.7 µM | 12.8 µM | 3.0 µM | 5.6 µM | 0.6 µM | 0.3 µM
